From patent US12138336B2, “Personal care composition comprising water insoluble solid organic compound” (The Procter & Gamble Company, priority 2018, dated 2024)
Converted amounts (≈) assume the structure as drawn. Read-outs that look alike come from different tables or passages of the source.

How the values were obtained:
[1] = Water solubility at 25° C.; format: physicochemical; settings: for solubility: water, 25 °C
[2] = Di-electric constant, BI-870 Liquid Dielectric Constant Meter; format: physicochemical; settings: third liquid compounds; room temperature (23.1-23.4° C.)
Experimental: Dielectric constant is measured at room temperature (23.1 ˜23.4° C.) using BI-870 Liquid Dielectric Constant Meter (Brookhaven Instruments, Corp., New York).

[3] = Crystals of the solid organic compound present in the composition at 25° C. or not; format: physicochemical; settings: added dissolved in ethanol/water mixture; cationic surfactant and high melting point fatty compounds; especially at higher amount
[4] = known property; cited from earlier work
[5] = third liquid compounds, read-out: Solubility in H2O
[6] = solid organic compounds, 25° C.
[7] = first liquid oily compounds, read-out: Solubility in H2O

OCc1ccccc1 [Benzyl Alcohol]
solubility [1, 5]: 43000 µg/mL (≈ 398000 µM)
Di-electric constant [2]: 13.69

Cc1cc(C2CCCCC2)n(O)c(=O)c1 [Ciclopirox Olamine, reference compound]
Water Solubility [1, 6]: 4450 µg/mL

Cc1cc(C2CCCCC2)n(O)c(=O)c1 [Ciclopirox, reference compound]
Water Solubility [1, 6]: 1410 µg/mL

C=CC(C)CCCC(C)(C)O (stereo not shown) [Dihydro Myrcenol]
Solubility in H2O ([1]; first liquid oily compounds): Negligible (lower than 0.1) g/L

CCCCCCC(C=O)=Cc1ccccc1 [Hexyl Cinnamic Aldehyde]
solubility [1, 7]: 2.75 µg/mL (≈ 12.7 µM)

CCCCCCCCCCCC(=O)N(C)CC(=O)OC(C)C [Isoropyl N-Lauroyl Sarcosinate]
Solubility in H2O ([1]; first liquid oily compounds): Negligible (lower than 0.1) g/L

CCCCCC1C(=O)CCC1CC(=O)OC (stereo not shown) [Methyl Dihydro Jasmonate]
solubility [1, 7]: 91.7 µg/mL (≈ 405 µM)

OCCOc1ccccc1 [Phenoxyethanol]
solubility [1, 5]: 26000 µg/mL (≈ 188000 µM)

Cc1cc(CC(C)CC(C)(C)C)n(O)c(=O)c1.NCCO (stereo not shown) [Piroctone Olamine]
Water Solubility [1, 6]: 30 µg/mL
Crystal formation in aqueous hair conditioning compositions [3]: forms crystals
Solubility in water, in words [4]: very limited solubility in water

Cc1cc(CC(C)CC(C)(C)C)n(O)c(=O)c1 (stereo not shown) [Piroctone, reference compound]
solubility ([1]; solid organic compounds, 25° C., read-out: Water Solubility): 240 µg/mL (≈ 1010 µM)
